In patent US20260109664A1, “COMPOUNDS FOR USE AS MEDICAMENTS” (priority 2022, published 2026):

Assays:
[1] = system: C. difficile 630Δerm; test: Toxicity growth curves (OD590 nm) of C. difficile monoculture in minimal media; type: cell-based, Clostridioides difficile; conditions: 8-hour growth curve; for effect on the growth of C. difficile (growth curve, OD590 nm): compound 6.6 mM in MM with 1% DMSO, FIGS. 1a to 5b
Procedure: (§1) Compounds EX1 to EX5 were separately tested to determine their toxicity to C. difficile and E. coli.
(§2) Each compound was dissolved to 6.6 mM in minimal media (MM) with 1% DMSO based on the MM described by Cartman et al. in Appln. Environ. Microbiol, 2010, 76, 1103 and the concentration was matched in a 1:1 ratio of the compound to the substrate p-HPA.
(§3) To determine growth rates of C. difficile and E. coli in the presence of compounds EX1 to EX5, three colonies of C. difficile or three colonies of E. coli were used to inoculate a primary culture of 10 mL MM in 50 cm^3 vented tissue culture flasks (Thermo Scientific). Following overnight incubation on a shaking platform at 50 rpm, the primary culture was back diluted in MM to OD590 nm 0.5 using a Fisherbrand™ Digital Colorimeter model 4.5 (Fisher Scientific). 1 ml of the OD590 nm 0.5 culture was inoculated into 10 ml of MM in 50 cm^3 vented tissue culture flasks with and without 4-hydroxyphenylacetic acid and the relevant compound (EX1 to EX5).
(§4) OD590 nm readings were determined every hour for eight hours using a Fisherbrand™ Digital Colorimeter model 4.5 (Fisher Scientific).
(§5) Growth curves denoting growth over an 8-hour time period for C. difficile and E. coli in MM with the presence of 4-hydroxyphenylacetic acid and inhibitors EX1 to EX5, each at 6.6 mM. Absorbance was measured at OD590 nm. *p<0.05, **p<0.01, samples represent a minimum of three biological replicates graphed in GraphPad prism (v9). Raw absorbance was normalised using a blank MM control.

[2] = system: E. coli; test: Toxicity growth curves (OD590 nm) of E. coli monoculture in minimal media; type: cell-based, Escherichia coli; conditions: compound 6.6 mM in MM with 1% DMSO, 8-hour growth curve, FIGS. 1a to 5b
Procedure: as §1, §2, §3, §4, §5

[3] = system: production of 4-methylphenol by C. difficile; test: HPLC of C. difficile monocultures: 4-methylphenol (p-cresol) production; type: cell-based, Clostridioides difficile; conditions: 630Δerm, 8 hours, 1.5 mg/ml p-HPA with matched 6.6 mM compound, normalised to OD590 nm, FIG. 14
Procedure: C. difficile monocultures were established in the presence of the following compounds EX1, EX3, EX5 and EX8.
Samples of 630Δerm were collected following growth in minimal media with 1% DMSO v/v for 8 hours with 1.5 mg/ml p-HPA with matched (6.6 mM) concentrations of compounds EX1, EX3, EX5 and EX8. At the time of sample collection, the OD590 nm of the culture was measured. Samples were immediately filter sterilised using 0.22 μm filters, then frozen at −80° C. prior to HPLC analysis.
The filter-sterilized samples were transferred to HPLC vials and analysed immediately by injecting onto the HPLC column. Separations were achieved by utilizing an Acclaim 120 (Thermofisher), C18, 5 μm (4.6×150 mm), with the mobile phase consisting of ammonium formate (10 mM, pH 2.7) and […] (v/v; 50:50) at a flow rate of 1400 μl/min. p-HPA and p-cresol were detected by the diode array detector (PDA; DAD 3000) set at 280 nm. Peak identity was confirmed by measuring the retention time of commercially available p-HPA and p-cresol, and determination of absorbance spectra was performed using the DAD. A calibration curve of each compound was generated by Chromeleon (Dionex software) using known amounts of the reference standards (0-5 mg/ml) dissolved in media and injected onto the column, and the amount of p-HPA and p-cresol in the samples was determined. Samples from three independent biological replicates were analysed compared to media controls and standard curves. The limit of detection for p-HPA and p-cresol are 0.001 and 0.0005 mg/ml, respectively. The p-cresol concentration was normalised to growth by using the OD590 nm measured at the time of sample collection.

[4] = system: production of 4-methylphenol by C. difficile; test: HPLC of C. difficile / E. coli co-culture: 4-methylphenol production; type: cell-based, Clostridioides difficile; conditions: 630Δerm and E. coli co-culture, no normalisation to OD590 nm, FIG. 15
Procedure: A C. difficile 630Δerm and E. coli co-culture was established (as per the methods previously described) in the presence of compound EX3.
Following co-culture, CFU assays were undertaken to determine relative survival of C. diff and E. coli. The remaining sample was filter sterilised (0.22 μm filters), then frozen at −80° C. prior to the HPLC analysis. HPLC analysis was carried out as described above (HPLC monocultures) with the exception of there being no normalisation of the 4-methylphenol concentration to OD590 nm.

[5] = system: C. difficile 630Δerm; test: Co-culture of C. difficile and E. coli, CFU percentages: C. difficile; type: cell-based, Clostridioides difficile; conditions: MM + 6.6 mM p-HPA + 6.6 mM inhibitor, 1% DMSO, 14 hours co-culture, FIGS. 7 to 13
Procedure: (§6) Compounds EX1 to EX7 were tested to determine their ability to reduce the growth of C. difficile relative to E. coli.
(§7) C. difficile 630Δerm and E. coli were grown overnight in MM. C. difficile was back diluted to an OD590 nm of 0.2. 18 μl of the back dilution was added to 1.8 ml of the test conditions: MM, MM+6.6 mM p-HPA, MM+6.6 mM inhibitor, and MM+6.6 mM p-HPA+6.6 mM inhibitor, in a 24 well plate. Each inhibitor was dissolved in DMSO such that the final concentration in the 24 well plate was 1% v/v. C. difficile was grown for 8 hours before E. coli underwent back dilution to an OD590 nm of 0.2 and 18 μl was inoculated into the C. difficile wells to give the co-culture. The co-culture was grown for 14 hours. The proportion of the co-cultures made up by C. difficile and E. coli were determined by colony-forming units per millilitre (CFU/ml) assays with co-cultures plated on to BHIS plates in duplicate with selective media for each species. C. difficile was selected for using cycloserine (250 mg/l) and cefoxitin (8 mg/l) whilst E. coli was selected for using vancomycin (4 mg/l). […] CFUs were counted on the following day. CFU data is presented using CFU percentages which were calculated by dividing the number of CFUs for each species by the total number of CFUs for both E. coli and C. difficile and multiplying by 100. […] Data was analysed by linear regression carried using Stata17.

[6] = system: E. coli; test: Co-culture of C. difficile and E. coli, CFU percentages: E. coli; type: cell-based, Escherichia coli; conditions: MM + 6.6 mM p-HPA + 6.6 mM inhibitor, 1% DMSO, 14 hours co-culture, FIGS. 7 to 13
Procedure: as §6, §7

SMILES | effect on the growth of C. difficile (growth curve, OD590 nm) [1] | effect on the growth of E. coli (growth curve, OD590 nm) [2] | production of 4-methylphenol by C. difficile (HPLC, monoculture) [3] | also measured
NC(=O)Cc1ccc(O)cc1 [EX1] | no effect on the growth | inhibited the growth | reduced | 
OCCc1ccc(O)cc1 [EX2] | toxic | toxic |  | 
N#CCc1ccc(O)cc1 [EX3] |  | inhibited the growth | reduced | effect on the growth of C. difficile when both compound and p-HPA present ([1]; compound 6.6 mM + p-HPA 6.6 mM (1:1) in MM): inhibited the growth; production of 4-methylphenol by C. difficile (HPLC, co-culture with E. coli) [4]: reduced
O=C(O)CCc1ccc(O)cc1 [EX4] | no effect on the growth |  |  | 
O=C(O)c1ccc(O)cc1 [EX5] | no effect on the growth | no effect on the growth | reduced | 
CC(C)(C(=O)O)c1ccc(O)cc1 [EX6] |  |  |  | inhibition of the growth of C. difficile in co-culture with E. coli (CFU percentage) [5]: able to inhibit the growth; impact on the growth of E. coli in co-culture with C. difficile [6]: little or no negative impact
O=C(O)Cc1ccc(O)cc1 [EX7] |  |  |  | inhibition of the growth of C. difficile in co-culture with E. coli (CFU percentage) [5]: able to inhibit the growth; impact on the growth of E. coli in co-culture with C. difficile [6]: little or no negative impact
COC(=O)Cc1ccc(O)cc1 [EX8] |  |  | reduced | 
